Source: US20230029496A1, “AMINO ACID ALTERNATIVE CURING SYSTEM” (THE TEXAS A&M UNIVERSITY SYSTEM, priority 2019, published 2023)
Where “and” joins values, the source holds several entries; their conditions need not be identical. Equal entries are not always repeated. Where two headings read alike, the source gives them in different places. Marks after values point to notes of the source that are not given here.

Key:
[1] = system: nitric oxide synthase system; conditions: poultry; for Residual Nitrite, LSMean main effect of Temperature: L-arginine
Procedure: (§1) Fresh ground meat (beef, pork or poultry) was separated in ˜0.5 Kg batches and mixed with 2% salt and 10% added water. […] Each individual batch was mixed (1 min) in a food processor, removed for temperature and pH analyses and then placed into a jerky extruder tube. Approximately 25 g of sample were extruded into 50 mL centrifuge, then capped and labeled and placed into a controlled water batch and heated to a designated internal endpoint temperature (132, 158, or 165° F.).
(§2) Samples also contained 547 ppm sodium erythorbate, a cure accelerator (Phase I) and without sodium erythorbate (Phase II). Samples were placed into test tubes and heated in a controlled water bath to 132, 158 and 165° F. Samples were held in a 40° F. cooler for seven days then tested for residual nitrite. Residual nitrite was tested after deproteinization for amino acid analysis by HPLC. Determination of nitrite (UV/VIS Spectrophotometric Method) was used to detect any residual nitrite for best results in detecting minute amounts of nitrite. Residual nitrite levels were read in a 96 well plate reader at 540 nm.
(§3) Both phases of the experiment were designed as a factorial (concentration level and endpoint temperature) randomized complete block design with three replications. […] Least squares means were generated and Tukey's HSD used to determine significance at P≤0.05.

[2] = system: nitric oxide synthase system; conditions: beef; for Residual Nitrite, LSMean main effect of Temperature: L-arginine
Procedure: as §1, §2, §3

[3] = Phase I, with 547 ppm sodium erythorbate, 3000 ppm L-arginine, 132° F.
[4] = Phase I, with 547 ppm sodium erythorbate, 3000 ppm L-arginine, 158° F.
[5] = Phase I, with 547 ppm sodium erythorbate, 3000 ppm L-arginine, 165° F.
[6] = Phase I, with 547 ppm sodium erythorbate, 4000 ppm L-arginine, 132° F.
[7] = Phase I, with 547 ppm sodium erythorbate, 4000 ppm L-arginine, 158° F.
[8] = Phase I, with 547 ppm sodium erythorbate, 4000 ppm L-arginine, 165° F.
[9] = Phase I, with 547 ppm sodium erythorbate, 5000 ppm L-arginine, 132° F.
[10] = Phase I, with 547 ppm sodium erythorbate, 5000 ppm L-arginine, 158° F.
[11] = Phase I, with 547 ppm sodium erythorbate, 5000 ppm L-arginine, 165° F.
[12] = Phase II, without 547 ppm sodium erythorbate, 1000 ppm L-arginine
[13] = Phase II, without 547 ppm sodium erythorbate, 1000 ppm L-arginine, 132° F.
[14] = Phase II, without 547 ppm sodium erythorbate, 1000 ppm L-arginine, 158° F.
[15] = Phase II, without 547 ppm sodium erythorbate, 1000 ppm L-arginine, 165° F.
[16] = Phase II, without 547 ppm sodium erythorbate, 2000 ppm L-arginine
[17] = Phase II, without 547 ppm sodium erythorbate, 2000 ppm L-arginine, 132° F.
[18] = Phase II, without 547 ppm sodium erythorbate, 2000 ppm L-arginine, 158° F.
[19] = Phase II, without 547 ppm sodium erythorbate, 2000 ppm L-arginine, 165° F.
[20] = Phase II, without 547 ppm sodium erythorbate, 3000 ppm L-arginine
[21] = Phase II, without 547 ppm sodium erythorbate, 3000 ppm L-arginine, 132° F.
[22] = Phase II, without 547 ppm sodium erythorbate, 3000 ppm L-arginine, 158° F.
[23] = Phase II, without 547 ppm sodium erythorbate, 3000 ppm L-arginine, 165° F.
[24] = Phase II, without 547 ppm sodium erythorbate, 4000 ppm L-arginine
[25] = Phase II, without 547 ppm sodium erythorbate, 4000 ppm L-arginine, 132° F.
[26] = Phase II, without 547 ppm sodium erythorbate, 4000 ppm L-arginine, 158° F.
[27] = Phase II, without 547 ppm sodium erythorbate, 4000 ppm L-arginine, 165° F.
[28] = Phase II, without 547 ppm sodium erythorbate, 5000 ppm L-arginine
[29] = Phase II, without 547 ppm sodium erythorbate, 5000 ppm L-arginine, 132° F.
[30] = Phase II, without 547 ppm sodium erythorbate, 5000 ppm L-arginine, 158° F.
[31] = Phase II, without 547 ppm sodium erythorbate, 5000 ppm L-arginine, 165° F.
[32] = Phase II, without 547 ppm sodium erythorbate, 132° F.
[33] = Phase II, without 547 ppm sodium erythorbate, 158° F.
[34] = Phase II, without 547 ppm sodium erythorbate, 165° F.

N=C(N)NCCC[C@H](N)C(=O)O [L-arginine]
Residual Nitrite, LSMean main effect of Concentration ([1]; Phase I, with 547 ppm sodium erythorbate, 3000 ppm L-arginine): 54.95^bc ppm and 54.95 ppm
Residual Nitrite, LSMean Conc × Temp [1, 3]: 60.08^abc ppm
Residual Nitrite, LSMean Conc × Temp [1, 4]: 65.81^abc ppm
Residual Nitrite, LSMean Conc × Temp [1, 5]: 38.96^cd ppm
Residual Nitrite, LSMean main effect of Concentration ([1]; Phase I, with 547 ppm sodium erythorbate, 4000 ppm L-arginine): 48.16^cd ppm and 48.16 ppm
Residual Nitrite, LSMean Conc × Temp [1, 6]: 50.99^a-d ppm
Residual Nitrite, LSMean Conc × Temp [1, 7]: 49.31^a-d ppm
Residual Nitrite, LSMean Conc × Temp [1, 8]: 44.17^cd ppm
Residual Nitrite, LSMean main effect of Concentration ([1]; Phase I, with 547 ppm sodium erythorbate, 5000 ppm L-arginine): 38.14^d ppm and 38.14 ppm
Residual Nitrite, LSMean Conc × Temp [1, 9]: 41.15^cd ppm
Residual Nitrite, LSMean Conc × Temp [1, 10]: 25.07^d ppm
Residual Nitrite, LSMean Conc × Temp [1, 11]: 48.20^bcd ppm
Residual Nitrite, LSMean main effect of Temperature ([1]; Phase I, with 547 ppm sodium erythorbate, 132° F.): 48.43 ppm
Residual Nitrite, LSMean main effect of Temperature ([1]; Phase I, with 547 ppm sodium erythorbate, 158° F.): 55.64 ppm
Residual Nitrite, LSMean main effect of Temperature ([1]; Phase I, with 547 ppm sodium erythorbate, 165° F.): 53.32 ppm
Residual Nitrite, LSMean main effect of Concentration [1, 12]: 65.37^a ppm and 65.44 ppm
Residual Nitrite, LSMean Conc × Temperature [1, 13]: 87.36^a ppm
Residual Nitrite, LSMean Conc × Temperature [1, 14]: 63.54^ab ppm
Residual Nitrite, LSMean Conc × Temperature [1, 15]: 45.19^ab ppm
Residual Nitrite, LSMean main effect of Concentration [1, 16]: 66.58^a ppm and 72.28 ppm
Residual Nitrite, LSMean Conc × Temperature [1, 17]: 65.60^ab ppm
Residual Nitrite, LSMean Conc × Temperature [1, 18]: 61.51^ab ppm
Residual Nitrite, LSMean Conc × Temperature [1, 19]: 72.63^ab ppm
Residual Nitrite, LSMean main effect of Concentration [1, 20]: 57.60^ab ppm and 54.95 ppm
Residual Nitrite, LSMean Conc × Temperature [1, 21]: 53.90^ab ppm
Residual Nitrite, LSMean Conc × Temperature [1, 22]: 73.59^a ppm
Residual Nitrite, LSMean Conc × Temperature [1, 23]: 45.32^ab ppm
Residual Nitrite, LSMean main effect of Concentration [1, 24]: 60.63^ab ppm and 48.16 ppm
Residual Nitrite, LSMean Conc × Temperature [1, 25]: 67.76^ab ppm
Residual Nitrite, LSMean Conc × Temperature [1, 26]: 52.15^ab ppm
Residual Nitrite, LSMean Conc × Temperature [1, 27]: 61.99^ab ppm
Residual Nitrite, LSMean main effect of Concentration [1, 28]: 45.02^b ppm and 38.14 ppm
Residual Nitrite, LSMean Conc × Temperature [1, 29]: 53.87^ab ppm
Residual Nitrite, LSMean Conc × Temperature [1, 30]: 30.83^b ppm
Residual Nitrite, LSMean Conc × Temperature [1, 31]: 50.37^ab ppm
Residual Nitrite, LSMean main effect of Temperature [1, 32]: 65.70 ppm
Residual Nitrite, LSMean main effect of Temperature [1, 33]: 56.32^ ppm and 56.32 ppm
Residual Nitrite, LSMean main effect of Temperature [1, 34]: 55.10 ppm
Residual Nitrite, LSMean Conc × Temp ([2]; Phase I, with 547 ppm sodium erythorbate, 1000 ppm L-arginine, 132° F.): 85.37 ppm
Residual Nitrite, LSMean Conc × Temp ([2]; Phase I, with 547 ppm sodium erythorbate, 1000 ppm L-arginine, 158° F.): 76.56 ppm
Residual Nitrite, LSMean Conc × Temp ([2]; Phase I, with 547 ppm sodium erythorbate, 1000 ppm L-arginine, 165° F.): 65.51 ppm
Residual Nitrite, LSMean Conc × Temp ([2]; Phase I, with 547 ppm sodium erythorbate, 2000 ppm L-arginine, 132° F.): 82.58 ppm
Residual Nitrite, LSMean Conc × Temp ([2]; Phase I, with 547 ppm sodium erythorbate, 2000 ppm L-arginine, 158° F.): 66.33 ppm
Residual Nitrite, LSMean Conc × Temp ([2]; Phase I, with 547 ppm sodium erythorbate, 2000 ppm L-arginine, 165° F.): 75.98 ppm
Residual Nitrite, LSMean Conc × Temp [2, 3]: 78.11 ppm
Residual Nitrite, LSMean Conc × Temp [2, 4]: 84.73 ppm
Residual Nitrite, LSMean Conc × Temp [2, 5]: 57.42 ppm
Residual Nitrite, LSMean Conc × Temp [2, 6]: 72.90 ppm
Residual Nitrite, LSMean Conc × Temp [2, 7]: 83.35 ppm
Residual Nitrite, LSMean Conc × Temp [2, 8]: 52.11 ppm
Residual Nitrite, LSMean Conc × Temp [2, 9]: 57.48 ppm
Residual Nitrite, LSMean Conc × Temp [2, 10]: 48.52 ppm
Residual Nitrite, LSMean Conc × Temp [2, 11]: 38.80 ppm
Residual Nitrite, LSMean main effect of Concentration [2, 12]: 107.03^a ppm and 107.03 ppm
Residual Nitrite, LSMean Conc × Temp [2, 13]: 110.31^a ppm
Residual Nitrite, LSMean Conc × Temp [2, 14]: 117.12^a ppm
Residual Nitrite, LSMean Conc × Temp [2, 15]: 93.64^abc ppm
Residual Nitrite, LSMean main effect of Concentration [2, 16]: 105.44^a ppm and 105.44 ppm
Residual Nitrite, LSMean Conc × Temp [2, 17]: 101.25^abc ppm
Residual Nitrite, LSMean Conc × Temp [2, 18]: 96.50^abc ppm
Residual Nitrite, LSMean Conc × Temp [2, 19]: 118.58^a ppm
Residual Nitrite, LSMean main effect of Concentration [2, 20]: 102.80^a ppm and 102.80 ppm
Residual Nitrite, LSMean Conc × Temp [2, 21]: 107.12^ab ppm
Residual Nitrite, LSMean Conc × Temp [2, 22]: 111.73^a ppm
Residual Nitrite, LSMean Conc × Temp [2, 23]: 89.54^abc ppm
Residual Nitrite, LSMean main effect of Concentration [2, 24]: 90.87^a ppm and 90.87 ppm
Residual Nitrite, LSMean Conc × Temp [2, 25]: 101.77^ab ppm
Residual Nitrite, LSMean Conc × Temp [2, 26]: 113.35^a ppm
Residual Nitrite, LSMean Conc × Temp [2, 27]: 57.51^bcd ppm
Residual Nitrite, LSMean main effect of Concentration [2, 28]: 40.23^b ppm and 40.23 ppm
Residual Nitrite, LSMean Conc × Temp [2, 29]: 52.68^cd ppm
Residual Nitrite, LSMean Conc × Temp [2, 30]: 37.81^d ppm
Residual Nitrite, LSMean Conc × Temp [2, 31]: 30.19^d ppm
Residual Nitrite, LSMean main effect of Temperature [2, 32]: 95.63^a ppm and 95.63 ppm
Residual Nitrite, LSMean main effect of Temperature [2, 33]: 95.30^a ppm and 95.30 ppm
Residual Nitrite, LSMean main effect of Temperature [2, 34]: 77.89^b ppm and 77.89 ppm
water activity (Aw) (3000 ppm L-arginine, Day 1): 0.979
water activity (Aw) (3000 ppm L-arginine, Day 7): 0.978
water activity (Aw) (3000 ppm L-arginine, Day 14): 0.976
water activity (Aw) (3000 ppm L-arginine, Day 28): 0.982
water activity (Aw) (4000 ppm L-arginine, Day 1): 0.979
water activity (Aw) (4000 ppm L-arginine, Day 7): 0.982
water activity (Aw) (4000 ppm L-arginine, Day 14): 0.975
water activity (Aw) (4000 ppm L-arginine, Day 28): 0.975
water activity (Aw) (5000 ppm L-arginine, Day 1): 0.982
water activity (Aw) (5000 ppm L-arginine, Day 7): 0.957
water activity (Aw) (5000 ppm L-arginine, Day 14): 0.972
water activity (Aw) (5000 ppm L-arginine, Day 28): 0.976
